What was measured:
Type in all cases: in vivo
[1] = tested on: dogs suffering from heart failure; experiment: Example 7: heart failure in dogs; settings: heart failure scale 1 (few to no clinical signs) to 10 (severe); for Initial Score: day 0; for Final Score: day 90, BID
Text: (§1) This example examines the ability of embodiments of the invention versus enalapril to treat heart failure.
(§2) The patient group is twenty-four dogs suffering from heart failure.
(§3) The patient group is broken into six groups of four dogs. The first group receives enalapril as the sole active agent; the second group receives a composition comprising enalapril and Lasix®; the third group receives a composition comprising HMW HA as the sole active agent; the fourth group receives a composition comprising CBD as the sole active agent; the fifth group receives a composition comprising HMW HA and CBD as the active agents; and the sixth group receives a composition comprising HMW HA, CBD, liposomal CoQ10, hawthorn berry, and ginko biloba as the active agents.
(§4) Each composition is administered for a period of ninety (90) days, BID. Each animal is evaluated on days 0 (“Initial Score”), 30, 60, and 90 (“Final Score”) of treatment. The results are averaged and characterized on a scale of 1 (few to no clinical signs of heart failure) to 10 (severe heart failure).
The following canine scores are observed and the results depicted in FIG. 7: […]

[2] = tested on: dogs suffering from cognitive dysfunction syndrome; experiment: Example 10: cognitive decline, Cognitive Dysfunction Screening Checklist (CBD Complex); settings: for Average Initial Score: day 0 (before treatment); for Average Final Score: day 60, BID
Text: This example examines the ability of embodiments of the invention versus Anipryl® to treat cognitive decline.
The patient group is twenty dogs suffering from cognitive dysfunction syndrome, as determined by the Cognitive Dysfunction Screening Checklist. See G. Landsberg et al., 2003 HANDBOOK OF BEHAVIOR PROBLEMS OF THE DOG AND CAT (Elsevier Science Limited) (2003). The twenty dogs are broken into five groups of four dogs. The first group receives Anipryl® as the sole active agent; the second group receives a composition comprising HMW HA as the sole active agent; the third group receives a composition comprising CBD as the sole active agent; the fourth group receives a composition comprising HMW HA and CBD Complex as the active agents; and the fifth group receives a composition comprising HMW HA, CBD Complex, nicotinamide adenine dinucleotide (“NAD”), and phosphatidylserine as the active agents.
Each composition is administered for a period of sixty (60) days, twice per day (“BID”). The owner completes the Checklist on days 0 (“Initial Score”), 15, 30, 45, and 60 (“Final Score”) of treatment.
Each group is evaluated and Checklist scores averaged. The following scores are observed and the results depicted in FIG. 10: […]

[3] = tested on: horses suffering from joint inflammation; experiment: Example 12: joint inflammation, thermal imaging (equine, CBD Complex); settings: over the inflamed joint, 60 days BID
Text: (§5) This example examines the ability of embodiments of the invention versus Cosequin® to treat joint inflammation.
The first patient group is twenty dogs suffering from joint inflammation. The second patient group is twenty cats suffering from joint inflammation. The third patient group is twenty horses suffering from joint inflammation. Each patient group is broken into five groups of four animals. The first groups receive Cosequin® as the sole active agent; the second groups receive a composition comprising HMW HA as the sole active agent; the third groups receive a composition comprising CBD as the sole active agent; the fourth groups receive a composition comprising HMW HA and CBD Complex as the active agents; and the fifth groups receive a composition comprising HMW HA, CBD Complex, Boswellia, and superoxide dismutase (“SOD”) as the active agents.
(§6) Each composition is administered for a period of sixty (60) days, BID. Efficacy is determined by a decrease in body temperature over the inflamed joint, as measured by thermal imaging (e.g., via Digatherm device). Thermal imaging is performed on days 0 (“Initial Score”), 15, 30, 45, and 60 (“Final Score”) of treatment.
The following equine scores are observed and the results depicted in FIG. 12c: […]

[4] = tested on: dogs suffering from heart failure; experiment: Example 15: heart failure in dogs (CBD Complex); settings: heart failure scale 1 (few to no clinical signs) to 10 (severe); for Initial Score: day 0; for Final Score: day 90, BID
Text: as §1, §2
as §3, with “and CBD Complex as the” for “and CBD as the”, “HMW HA, CBD Complex, liposomal CoQ10,” for “HMW HA, CBD, liposomal CoQ10,”
as §4

[5] = tested on: horses suffering from joint inflammation; experiment: Example 4: joint inflammation, thermal imaging (equine); settings: over the inflamed joint, 60 days BID
Text: as §5
The first patient group is twenty dogs suffering from joint inflammation. The second patient group is twenty cats suffering from joint inflammation. The third patient group is twenty horses suffering from joint inflammation. Each patient group is broken into five groups of four animals. The first groups receive Cosequin® as the sole active agent; the second groups receive a composition comprising HMW HA as the sole active agent; the third groups receive a composition comprising CBD as the sole active agent; the fourth groups receive a composition comprising HMW HA and CBD as the active agents; and the fifth groups receive a composition comprising HMW HA, CBD, Boswellia, and superoxide dismutase (“SOD”) as the active agents.
as §6
The following equine scores are observed and the results depicted in FIG. 4c: […]

[6] = tested on: dogs suffering behavior aberrations and/or anxiety; experiment: Example 5: behavior aberrations and anxiety, C-BARQ (canine); settings: C-BARQ day 0 vs 60, SID, 0 (no improvement) to 3 (marked improvement)
Text: This example examines the ability of embodiments of the invention versus Clomicalm® to reduce behavior aberrations and anxiety.
The first patient group is twenty dogs suffering behavior aberrations and/or anxiety, as determined by the canine behavioral assessment and research questionnaire (“C-BARQ”). See, e.g., P. Wiener et al., Use of questionnaire-based data to assess dog personality, 16 JOURNAL OF VETERINARY BEHAVIOR 81-85 (2016). The second patient group is twenty cats suffering behavior aberrations and/or anxiety, as determined by the feline behavioral assessment and research questionnaire (“Fe-BARQ”).
Each group is broken into five groups of four animals. The first group receives Clomicalm® as the sole active agent; the second group receives a composition comprising HMW HA as the sole active agent; the third group receives a composition comprising CBD as the sole active agent; the fourth group receives a composition comprising HMW HA and CBD as the active agents; and the fifth group receives a composition comprising HMW HA, CBD, valerian root, and scutillaria as the active agents.
Each composition is administered for a period of sixty (60) days, once a day (“SID”). Owners complete the species-appropriate C-BARQ or Fe-BARQ on days 0 and 60 of treatment. The results from the overall questionnaire are averaged and characterized as no improvement (score of 0), mild improvement (score of 1), moderate improvement (score of 2), or marked improvement (score of 3).
The following canine scores are observed and the results depicted in FIG. 5a: […]

Compound: C=C(C)[C@@H]1CCC(C)=C[C@H]1c1c(O)cc(CCCCC)cc1O [CBD Alone, 2-[(1R,6R)-3-methyl-6-prop-1-en-2-ylcyclohex-2-en-1-yl]-5-pentylbenzene-1,3-diol]
- Initial Score [1]: 8
- Final Score [1]: 4
- Average Initial Score [2]: 3
- Average Final Score [2]: 1.5
- Reduction in Temperature (° F.) [3]: 1.6 ° F.
- Initial Score [4]: 8
- Final Score [4]: 4
- Reduction in Temperature (° F.) [5]: 1.6 ° F.
- Improvement Score [6]: 2

Compound: hyaluronic acid [HMW HA Alone]
- Initial Score [1]: 8
- Final Score [1]: 4
- Average Initial Score [2]: 3
- Average Final Score [2]: 2
- Reduction in Temperature (° F.) [3]: 2.1 ° F.
- Initial Score [4]: 8
- Final Score [4]: 4
- Reduction in Temperature (° F.) [5]: 2.1 ° F.
- Improvement Score [6]: 1

From patent publication US20220054532A1, “VETERINARY COMPOSITIONS AND METHODS OF USE THEREFOR” (priority 2019, published 2022)
